In patent US9492413B2 (priority 2008, dated 2016):
Read-outs that look alike come from different tables or passages of the source.

Assays:
[1] = tested on: human H5N1 isolate A/Thailand/KAN-1/2004; assay type: cell-based, influenza A virus
[2] = tested on: JNK, p38 and ERK; conditions: cited from earlier work
[3] = tested on: A/FPV/Bratislava/79 (H7N7)
[4] = tested on: H7N1 virus (FPV)
[5] = tested on: H5N1 virus (MB1)
[6] = tested on: JNK, p38 and ERK
[7] = tested on: poly-ADP-ribose polymerase (PARP)
[8] = tested on: viral proteins M1, NP, NS1 and PB1
[9] = tested on: viral ribonucleoprotein complexes (RNP)
[10] = tested on: IP10; conditions: mouse, in vivo
[11] = tested on: IFN-gamma; conditions: mouse, in vivo
[12] = human, in vivo

Compound | inhibition of virus titers [1] | virus-induced activation of JNK, p38 and ERK [2] | inhibition of virus multiplication (virus titers versus time) [3] | reduction of replication [4] | reduction of replication [5] | virus-induced activation of JNK, p38 and ERK [6] | band of the cleaved PARP (caspase activation) [7] | accumulation of the viral proteins M1, NP, NS1 and PB1 [8] | retention of viral RNP complexes [9] | reduction of IP10 m-RNA expression ([10]; ip) [%] | reduction of IP10 m-RNA expression ([10]; iv) [%] | reduction of IFN-gamma m-RNA expression ([11]; ip) [%] | reduction of IFN-gamma m-RNA expression ([11]; iv) [%] | improvement of the symptoms, all other patients [12] | improvement of the symptoms, first day after the administration [12]
CC(=O)Oc1ccccc1C(=O)O [acetylsalicylic acid, reference compound] | efficient inhibition of the virus titers of the H5N1 strain by several decimal powers | is not inhibited |  |  |  |  |  |  |  |  |  |  |  |  | 
lysine-glycine-acetylsalicylate [LG-acetylsalicylate] | efficient inhibition of the virus titers of the H5N1 strain by several decimal powers |  | equally efficiently inhibits the virus multiplication | more than 99% | more than 99% | is not blocked | efficiently reduced | is not inhibited | efficient retention of viral RNP complexes | 26 | 62 | 50 | 68 | improvement of the symptoms occurred on the 3rd day | significant improvement of the symptoms
